According to BindingDB's records for doi:10.7270/Q2PZ576Z (The Scripps Research Institute Molecular Screening Center, 2007):

What follows are compounds tested against Sphingosine 1-phosphate receptor 3 (Homo sapiens, UniProt Q99500) (assay: S1P3 receptor activation, EC50 – cell-based, NFAT-BLA reporter, dose response (AID 439)). Settings: not given.
Sphingosine 1-phosphate receptor 3, sequence (Q99500 whole entry): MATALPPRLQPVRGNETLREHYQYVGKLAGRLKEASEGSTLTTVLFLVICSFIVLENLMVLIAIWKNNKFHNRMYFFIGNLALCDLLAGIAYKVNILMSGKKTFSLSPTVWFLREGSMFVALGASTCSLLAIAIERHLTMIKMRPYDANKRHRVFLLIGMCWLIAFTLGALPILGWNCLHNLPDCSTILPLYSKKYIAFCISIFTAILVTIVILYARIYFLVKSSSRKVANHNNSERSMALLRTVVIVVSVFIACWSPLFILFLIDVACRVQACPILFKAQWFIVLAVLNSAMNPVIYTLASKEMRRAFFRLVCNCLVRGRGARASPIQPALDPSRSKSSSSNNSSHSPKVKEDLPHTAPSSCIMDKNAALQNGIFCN

SMILES	EC50 [µM]
Clc1ccc2nc(N3CCNCC3)nc(-c3ccccc3)c2c1	> 45
CC(=O)Oc1ccc2cc(-c3nc4ccccc4n3C)c(=O)oc2c1	6.42
Cc1cc(NC(=O)NC(=O)c2cccc(OC(F)(F)C(F)F)c2)[nH]n1	> 45
CCCSc1nc(N2CCOCC2)c2c(c1C#N)CCCC2 [1-(4-morpholinyl)-3-(propylthio)-5,6,7,8-tetrahydroisoquinoline-4-carbonitrile]	4.34
Cc1cc(C)n(-c2nc(NCC(C)O)c3c4c(sc3n2)CCCC4)n1 (stereo not given) [1-[[2-(3,5-dimethyl-1-pyrazolyl)-5,6,7,8-tetrahydro-[1]benzothiolo[2,3-d]pyrimidin-4-yl]amino]-2-propanol]	7.79
O=C(OCCN1C(=O)c2ccccc2C1=O)c1cccc(OC(F)F)c1 [2-(1,3-dioxoisoindol-2-yl)ethyl 3-(difluoromethoxy)benzoate]	> 45
Cc1cc(C)nc(-n2nc(C)c(Sc3ccc(F)cc3)c2N)n1 [2-(4,6-dimethyl-2-pyrimidinyl)-4-[(4-fluorophenyl)thio]-5-methyl-3-pyrazolamine]	2.34
CC(C)n1c(=N)c(C(=O)NCCc2ccccc2)cc2c(=O)n3ccccc3nc21 [2-Imino-1-isopropyl-10-oxo-1,10-dihydro-2H-1,9,10a-triaza-anthracene-3-carboxylic acid phenethyl-amide]	> 45
CCCCC(=O)NC(Nc1nc(C2CC2)cs1)(C(=O)OCC)C(F)(F)F (stereo not given) [2-[(4-cyclopropyl-2-thiazolyl)amino]-3,3,3-trifluoro-2-(1-oxopentylamino)propanoic acid ethyl ester]	9.87
CCC(C)NC(=O)c1c(N)n(Cc2ccc3c(c2)OCO3)c2nc3ccccc3nc12 (stereo not given) [2-amino-1-(1,3-benzodioxol-5-ylmethyl)-N-butan-2-ylpyrrolo[3,2-b]quinoxaline-3-carboxamide]	7.93
CCOC(=O)C1C(=N)OC2=C(C(=O)CCC2)C1c1ccccc1OCC (stereo not given) [2-amino-4-(2-ethoxyphenyl)-5-oxo-4,6,7,8-tetrahydro-1-benzopyran-3-carboxylic acid ethyl ester]	18.5
Nc1c(C(=O)NCc2ccco2)c2nc3ccccc3nc2n1CCN1CCCCC1 [2-amino-N-(2-furanylmethyl)-1-[2-(1-piperidinyl)ethyl]-3-pyrrolo[3,2-b]quinoxalinecarboxamide]	> 45
Cc1ccc(-c2cc(-c3ccc(Cl)cc3)c(C#N)c(N)n2)o1 [2-azanyl-4-(4-chlorophenyl)-6-(5-methylfuran-2-yl)pyridine-3-carbonitrile]	> 45
Cc1nc(-c2ccccc2)cc(N2CCCC2)n1 [2-methyl-4-phenyl-6-(1-pyrrolidinyl)pyrimidine]	> 45
Cc1cc(C)n(-c2nc(NCCCO)c3c4c(sc3n2)CCCC4)n1 [3-[[2-(3,5-dimethyl-1-pyrazolyl)-5,6,7,8-tetrahydro-[1]benzothiolo[2,3-d]pyrimidin-4-yl]amino]-1-propanol]	4.28

Same assay, conditions: inactive by the depositor's call

SMILES	EC50 [µM]
Cc1cc(-n2c(=O)c(C#N)cc3c(=O)n4ccccc4nc32)no1	26.4
O=C(NC1=NCCS1)c1cc(-c2ccccc2)nn1-c1ccccc1	41.7
Cc1cccn2c(=O)c3cc(C(=O)NC(C)c4ccccc4)c(=N)n(CCCn4ccnc4)c3nc12 (stereo not given) [1-(3-imidazol-1-ylpropyl)-2-imino-10-methyl-5-oxo-N-(1-phenylethyl)dipyrido[3,4-c:1',2'-f]pyrimidine-3-carboxamide]	17.4
COc1ccc(CCn2c(C)cc(C(=O)CSc3nnnn3C)c2C)cc1 [1-[1-[2-(4-methoxyphenyl)ethyl]-2,5-dimethyl-3-pyrrolyl]-2-[(1-methyl-5-tetrazolyl)thio]ethanone]	18.6
CC(Oc1ccccc1Br)C(=O)N1CCc2ccccc21 (stereo not given) [1-[2-(2-bromophenoxy)propanoyl]indoline]	25.2
Cc1cc(C)n(-c2nc(NCc3cccnc3)c3c4c(sc3n2)COC(C)(C)C4)n1 [2-(3,5-dimethyl-1-pyrazolyl)-6,6-dimethyl-N-(3-pyridinylmethyl)-5,8-dihydropyrano[4,5]thieno[1,2-c]pyrimidin-4-amine]	15.3
COCCNc1nc(-n2nc(C)cc2C)nc2sc3c(c12)CCCC3 [2-(3,5-dimethyl-1-pyrazolyl)-N-(2-methoxyethyl)-5,6,7,8-tetrahydro-[1]benzothiolo[2,3-d]pyrimidin-4-amine]	13.3
COc1ccc(Nc2nc(Nc3ccc(OC)cc3)nc(-n3[nH]c(=O)c(C)c3C)n2)cc1 [2-[4,6-bis(4-methoxyanilino)-1,3,5-triazin-2-yl]-3,4-dimethyl-1H-pyrazol-5-one]	14.7
OCCN1CCN(c2nc(-c3ccccc3)c3cc(Cl)ccc3n2)CC1 [2-[4-(6-chloranyl-4-phenyl-quinazolin-2-yl)piperazin-1-yl]ethanol]	108
N#CCSc1nnc(-c2ccccc2)c(-c2ccccc2)n1 [2-[(5,6-diphenyl-1,2,4-triazin-3-yl)sulfanyl]acetonitrile]	47.4
Nc1c(C(=O)NCCc2ccccc2)c2nc3ccccc3nc2n1CCN1CCOCC1 [2-amino-1-(2-morpholin-4-ylethyl)-N-(2-phenylethyl)pyrrolo[3,2-b]quinoxaline-3-carboxamide]	37.5
COc1ccc(CCn2c(N)c(C(=O)NCc3ccco3)c3nc4ccccc4nc32)cc1OC [2-amino-1-[2-(3,4-dimethoxyphenyl)ethyl]-N-(2-furanylmethyl)-3-pyrrolo[3,2-b]quinoxalinecarboxamide]	45
CCCCCCn1c(N)c(C(=O)NCCN2CCOCC2)c2nc3ccccc3nc21 [2-amino-1-hexyl-N-(2-morpholin-4-ylethyl)pyrrolo[3,2-b]quinoxaline-3-carboxamide]	42.3
Nc1c(C(=O)NCc2ccc3c(c2)OCO3)c2nc3ccccc3nc2n1CCCN1CCOCC1 [2-amino-N-(1,3-benzodioxol-5-ylmethyl)-1-(3-morpholin-4-ylpropyl)pyrrolo[3,2-b]quinoxaline-3-carboxamide]	19.1
COc1ccc(Cn2c(N)c(C(=O)NCc3ccco3)c3nc4ccccc4nc32)cc1 [2-amino-N-(2-furanylmethyl)-1-[(4-methoxyphenyl)methyl]-3-pyrrolo[3,2-b]quinoxalinecarboxamide]	19.8
CC(C)OCCCNC(=O)c1c(N)n(Cc2cccs2)c2nc3ccccc3nc12 [2-amino-N-(3-propan-2-yloxypropyl)-1-(thiophen-2-ylmethyl)pyrrolo[3,2-b]quinoxaline-3-carboxamide]	22.2
Nc1c(C(=O)NCCN2CCOCC2)c2nc3ccccc3nc2n1CCc1ccccc1 [2-amino-N-[2-(4-morpholinyl)ethyl]-1-(2-phenylethyl)-3-pyrrolo[3,2-b]quinoxalinecarboxamide]	178
CCOc1ccc(-c2noc(-c3ccncc3)n2)cc1OCC [3-(3,4-diethoxyphenyl)-5-(4-pyridyl)-1,2,4-oxadiazole]	11.6
CCSc1nc(N2CCOCC2)c2c(c1C#N)CCCC2 [3-(ethylthio)-1-(4-morpholinyl)-5,6,7,8-tetrahydroisoquinoline-4-carbonitrile]	14.5
O=c1c2ccccc2nnn1CSc1nnc(C2COc3ccccc3O2)n1-c1ccccc1 (stereo not given) [3-[[5-(2,3-dihydro-1,4-benzodioxin-3-yl)-4-phenyl-1,2,4-triazol-3-yl]sulfanylmethyl]-1,2,3-benzotriazin-4-one]	29.5
